Legend:
Experiment in all cases: Kinase profiling in a biochemical assay panel (mobility shift assays and ELISA), %-inhibition at 1 μM; selectivity entropy
[1] = target: panel of more than 300 wild-type and mutant kinases (313 kinase panel) (Homo sapiens, UniProt Q9Y3S1); conditions: kinase WNK2; compound at 1 μM
[2] = target: panel of more than 300 wild-type and mutant kinases (313 kinase panel) (Homo sapiens, UniProt P43405)
[3] = target: panel of more than 300 wild-type and mutant kinases (313 kinase panel) (Homo sapiens, UniProt P80192); conditions: kinase MLK1; 1 μM
[4] = target: panel of more than 300 wild-type and mutant kinases (313 kinase panel) (Homo sapiens, UniProt Q16654); conditions: kinase PDHK4; 1 μM
[5] = target: panel of more than 300 wild-type and mutant kinases (313 kinase panel) (Homo sapiens, UniProt Q9HBH9); conditions: kinase MNK2; 1 μM
[6] = target: T1, panel of more than 300 wild-type and mutant kinases (313 kinase panel) (Homo sapiens, UniProt Q9NZJ5); conditions: kinase PEK; 1 μM
T1 sequence (Q9NZJ5 30-1116): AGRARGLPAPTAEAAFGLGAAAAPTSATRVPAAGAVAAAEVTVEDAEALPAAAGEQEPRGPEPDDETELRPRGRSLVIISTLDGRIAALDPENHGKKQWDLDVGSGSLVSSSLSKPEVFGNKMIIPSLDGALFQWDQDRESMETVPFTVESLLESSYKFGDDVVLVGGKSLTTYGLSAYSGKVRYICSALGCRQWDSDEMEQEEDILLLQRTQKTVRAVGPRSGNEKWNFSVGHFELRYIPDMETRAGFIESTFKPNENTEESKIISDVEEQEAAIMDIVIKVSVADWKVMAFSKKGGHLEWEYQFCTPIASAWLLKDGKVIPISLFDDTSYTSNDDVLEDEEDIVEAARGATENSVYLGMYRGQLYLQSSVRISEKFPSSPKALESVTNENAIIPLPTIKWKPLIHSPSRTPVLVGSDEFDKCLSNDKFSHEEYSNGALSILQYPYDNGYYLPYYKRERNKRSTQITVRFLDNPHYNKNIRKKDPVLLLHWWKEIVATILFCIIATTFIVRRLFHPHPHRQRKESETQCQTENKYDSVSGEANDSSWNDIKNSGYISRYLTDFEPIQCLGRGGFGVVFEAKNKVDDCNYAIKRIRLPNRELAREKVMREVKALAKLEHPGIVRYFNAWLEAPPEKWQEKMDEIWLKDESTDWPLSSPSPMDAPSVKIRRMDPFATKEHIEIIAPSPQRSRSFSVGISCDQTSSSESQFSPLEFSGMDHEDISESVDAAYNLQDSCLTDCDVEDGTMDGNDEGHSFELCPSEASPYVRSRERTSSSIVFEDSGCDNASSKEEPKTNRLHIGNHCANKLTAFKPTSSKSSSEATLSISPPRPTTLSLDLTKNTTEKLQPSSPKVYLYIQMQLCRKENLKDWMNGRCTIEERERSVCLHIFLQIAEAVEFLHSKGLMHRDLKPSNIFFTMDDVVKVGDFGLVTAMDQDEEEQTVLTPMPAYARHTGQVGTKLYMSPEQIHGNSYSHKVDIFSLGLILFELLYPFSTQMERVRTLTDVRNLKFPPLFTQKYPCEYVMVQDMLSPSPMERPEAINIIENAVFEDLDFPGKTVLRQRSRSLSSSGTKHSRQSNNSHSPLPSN

[7] = target: panel of more than 300 wild-type and mutant kinases (313 kinase panel) (Homo sapiens, UniProt P78368); conditions: kinase CK1γ2; 1 μM compound
[8] = target: panel of more than 300 wild-type and mutant kinases (313 kinase panel) (Homo sapiens, UniProt P22455, V550L); conditions: kinase FGFR4(V550L); compound at 1 μM
[9] = target: panel of more than 300 wild-type and mutant kinases (313 kinase panel) (Homo sapiens, UniProt P54764); conditions: kinase EPHA4; compound at 1 μM
[10] = target: panel of more than 300 wild-type and mutant kinases (313 kinase panel) (Homo sapiens, UniProt Q9P289)
[11] = target: panel of more than 300 wild-type and mutant kinases (313 kinase panel) (Homo sapiens, UniProt O75676)

panel of more than 300 wild-type and mutant kinases (313 kinase panel) (Homo sapiens, UniProt P54764), sequence (P54764 20-986, change not shown): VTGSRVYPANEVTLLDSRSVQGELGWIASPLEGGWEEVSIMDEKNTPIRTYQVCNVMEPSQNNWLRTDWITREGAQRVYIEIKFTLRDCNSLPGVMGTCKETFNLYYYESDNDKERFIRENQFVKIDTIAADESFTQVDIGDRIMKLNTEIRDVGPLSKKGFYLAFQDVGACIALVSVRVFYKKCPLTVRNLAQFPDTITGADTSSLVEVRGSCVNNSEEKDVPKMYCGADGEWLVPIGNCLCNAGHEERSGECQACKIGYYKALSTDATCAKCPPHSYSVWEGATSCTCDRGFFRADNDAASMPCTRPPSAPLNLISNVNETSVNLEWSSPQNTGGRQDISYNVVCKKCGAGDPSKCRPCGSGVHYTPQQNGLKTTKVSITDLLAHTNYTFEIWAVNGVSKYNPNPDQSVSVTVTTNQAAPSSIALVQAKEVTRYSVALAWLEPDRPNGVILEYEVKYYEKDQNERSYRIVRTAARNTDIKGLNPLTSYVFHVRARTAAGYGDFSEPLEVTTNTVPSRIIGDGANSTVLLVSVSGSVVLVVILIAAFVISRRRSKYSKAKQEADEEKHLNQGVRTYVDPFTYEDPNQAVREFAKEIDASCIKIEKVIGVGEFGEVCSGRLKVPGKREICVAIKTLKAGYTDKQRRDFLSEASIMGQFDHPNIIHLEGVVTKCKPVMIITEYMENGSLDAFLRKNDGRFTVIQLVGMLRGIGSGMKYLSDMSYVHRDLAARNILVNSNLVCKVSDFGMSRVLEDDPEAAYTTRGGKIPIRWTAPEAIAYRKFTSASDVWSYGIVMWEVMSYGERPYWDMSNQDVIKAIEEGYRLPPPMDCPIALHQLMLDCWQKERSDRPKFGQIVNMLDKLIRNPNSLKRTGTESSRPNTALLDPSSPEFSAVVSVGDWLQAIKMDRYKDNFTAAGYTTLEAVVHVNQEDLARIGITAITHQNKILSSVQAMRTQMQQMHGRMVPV
panel of more than 300 wild-type and mutant kinases (313 kinase panel) (Homo sapiens, UniProt P80192), sequence (P80192 whole entry, change not shown): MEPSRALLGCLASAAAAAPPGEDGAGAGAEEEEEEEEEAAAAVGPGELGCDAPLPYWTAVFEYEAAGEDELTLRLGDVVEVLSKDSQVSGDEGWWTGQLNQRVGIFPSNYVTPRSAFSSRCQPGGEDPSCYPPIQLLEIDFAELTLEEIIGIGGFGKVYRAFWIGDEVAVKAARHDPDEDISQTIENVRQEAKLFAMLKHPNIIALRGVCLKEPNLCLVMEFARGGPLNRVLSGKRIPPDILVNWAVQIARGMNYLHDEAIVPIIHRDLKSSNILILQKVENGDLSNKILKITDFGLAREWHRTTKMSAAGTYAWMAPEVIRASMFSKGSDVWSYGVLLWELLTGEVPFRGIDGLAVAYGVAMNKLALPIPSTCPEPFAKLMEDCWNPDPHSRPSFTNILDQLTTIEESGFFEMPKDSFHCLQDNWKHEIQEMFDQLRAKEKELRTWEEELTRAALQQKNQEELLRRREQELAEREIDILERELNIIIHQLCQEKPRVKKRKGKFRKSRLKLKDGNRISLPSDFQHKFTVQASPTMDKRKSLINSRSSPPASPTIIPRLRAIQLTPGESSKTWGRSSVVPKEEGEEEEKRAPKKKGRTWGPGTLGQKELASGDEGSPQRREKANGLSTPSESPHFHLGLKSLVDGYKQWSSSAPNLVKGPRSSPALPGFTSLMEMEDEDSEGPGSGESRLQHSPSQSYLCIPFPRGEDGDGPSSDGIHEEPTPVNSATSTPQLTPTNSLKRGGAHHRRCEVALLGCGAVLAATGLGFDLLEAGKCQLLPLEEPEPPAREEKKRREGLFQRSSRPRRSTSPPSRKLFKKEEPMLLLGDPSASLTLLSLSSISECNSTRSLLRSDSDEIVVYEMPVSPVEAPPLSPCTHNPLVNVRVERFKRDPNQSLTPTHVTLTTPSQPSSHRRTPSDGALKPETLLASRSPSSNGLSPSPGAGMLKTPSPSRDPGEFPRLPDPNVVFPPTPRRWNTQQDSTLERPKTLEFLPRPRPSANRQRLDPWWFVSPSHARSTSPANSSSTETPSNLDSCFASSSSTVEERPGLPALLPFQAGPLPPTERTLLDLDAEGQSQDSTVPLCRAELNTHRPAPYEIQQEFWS
panel of more than 300 wild-type and mutant kinases (313 kinase panel) (Homo sapiens, UniProt P22455, V550L), sequence (P22455 22-802 V550L): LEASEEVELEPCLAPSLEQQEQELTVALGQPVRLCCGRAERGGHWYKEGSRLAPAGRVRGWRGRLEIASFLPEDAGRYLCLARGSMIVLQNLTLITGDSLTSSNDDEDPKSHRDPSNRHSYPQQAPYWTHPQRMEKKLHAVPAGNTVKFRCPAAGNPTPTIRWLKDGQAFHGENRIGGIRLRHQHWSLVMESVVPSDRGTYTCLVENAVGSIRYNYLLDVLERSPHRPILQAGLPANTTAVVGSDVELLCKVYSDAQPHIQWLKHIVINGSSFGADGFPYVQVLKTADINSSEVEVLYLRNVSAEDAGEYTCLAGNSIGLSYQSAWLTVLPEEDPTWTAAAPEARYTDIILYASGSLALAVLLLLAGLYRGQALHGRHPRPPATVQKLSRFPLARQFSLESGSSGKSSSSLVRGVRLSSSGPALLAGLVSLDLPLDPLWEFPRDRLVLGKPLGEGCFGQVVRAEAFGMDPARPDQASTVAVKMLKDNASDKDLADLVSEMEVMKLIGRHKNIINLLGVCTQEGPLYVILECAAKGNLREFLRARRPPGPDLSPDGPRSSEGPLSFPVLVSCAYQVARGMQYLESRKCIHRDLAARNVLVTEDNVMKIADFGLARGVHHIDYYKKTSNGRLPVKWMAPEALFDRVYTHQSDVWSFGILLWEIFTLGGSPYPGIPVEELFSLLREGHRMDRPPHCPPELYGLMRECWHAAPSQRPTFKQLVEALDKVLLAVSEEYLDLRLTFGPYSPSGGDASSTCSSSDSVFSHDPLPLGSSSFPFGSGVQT
panel of more than 300 wild-type and mutant kinases (313 kinase panel) (Homo sapiens, UniProt Q9P289), sequence (Q9P289 whole entry, change not shown): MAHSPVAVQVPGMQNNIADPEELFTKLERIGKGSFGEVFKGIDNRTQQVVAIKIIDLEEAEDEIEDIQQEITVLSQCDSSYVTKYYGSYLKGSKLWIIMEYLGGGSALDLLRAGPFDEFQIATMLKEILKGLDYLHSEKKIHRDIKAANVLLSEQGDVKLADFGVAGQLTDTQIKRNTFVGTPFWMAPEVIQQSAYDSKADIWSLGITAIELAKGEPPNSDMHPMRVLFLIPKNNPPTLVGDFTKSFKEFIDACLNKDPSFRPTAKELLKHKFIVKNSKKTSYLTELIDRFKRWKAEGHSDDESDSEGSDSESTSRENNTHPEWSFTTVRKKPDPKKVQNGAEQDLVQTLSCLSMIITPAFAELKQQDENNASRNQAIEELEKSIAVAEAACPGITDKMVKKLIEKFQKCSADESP

SMILES	%-inhibition of WNK2 [1]	%-inhibition of SYK ([2]; 1 µM)	%-inhibition of MLK1 [3]	%-inhibition of PDHK4 [4]	%-inhibition of MNK2 [5]	%-inhibition of PEK [6]	%-inhibition, CK1γ2 [7]	%-inhibition of FGFR4(V550L) [8]	%-inhibition of EPHA4 [9]	%-inhibition of MST4 ([10]; kinase MST4, 1 μM)	%-inhibition of MSK2 ([11]; 1 µM)	%-inhibition of SYK ([2]; kinase SYK, 1 μM)	%-inhibition of MSK2 ([11]; kinase MSK2, 1 μM)	%-inhibition of MST4 ([10]; 1 µM)
N#CC[C@H](C1CCCC1)n1cc(-c2ncnc3[nH]ccc23)cn1 [ruxolitinib]	-4.57%	20%	53%	-6%	54%	-0.459%	-0.393%	16%	12%	-3%	4.62%			
CO[C@H]1C[C@@H]2CC[C@@H](C)[C@@](O)(O2)C(=O)C(=O)N2CCCC[C@H]2C(=O)O[C@H]([C@H](C)C[C@@H]2CC[C@@H](OC(=O)C(C)(CO)CO)[C@H](OC)C2)CC(=O)[C@H](C)/C=C(\C)[C@@H](O)[C@@H](OC)C(=O)[C@H](C)C[C@H](C)/C=C/C=C/C=C/1C [temsirolimus]	-7%		7.48%	-1.83%	-14%	8%	-3.32%	-8.55%	-4.51%	-3.42%		-13%	-5%	
CC(=O)Nc1cccc(-n2c(=O)n(C3CC3)c(=O)c3c(Nc4ccc(I)cc4F)n(C)c(=O)c(C)c32)c1 [trametinib]	1.45%		16%	-1.65%	-11%	1.13%	-2.15%	-0.155%	-5.3%	-2.23%		-5%	-4.75%	
CCCS(=O)(=O)Nc1ccc(F)c(C(=O)c2c[nH]c3ncc(-c4ccc(Cl)cc4)cc23)c1F [vemurafenib]	13%		10%	-1.4%	27%	11%	0.506%	0.45%	-2%			-3.77%	-1%	-4.62%

Source: publication PMC3961306, “Comparison of the Cancer Gene Targeting and Biochemical Selectivities of All Targeted Kinase Inhibitors Approved for Clinical Use” (PLoS ONE, 2014)
